From ChEMBL document CHEMBL1135126, “Identification of novel antifungal nonapeptides through the screening of combinatorial peptide libraries based on a hexapeptide motif” (Bioorg Med Chem Lett, 2002)
Converted amounts (≈) assume the structure as drawn. Where a SMILES comes first, the peptide text is derived from it. [ ]: non-standard residue; d: D form.

Assays:
[1] = system: Candida albicans; experiment: Concentration that substantially inhibit growth of Candida albicans; format: functional, organism-based
[2] = system: Cryptococcus neoformans; experiment: Concentration that substantially inhibit the growth of Cryptococcus neoformans; format: functional

| SMILES | MIC [2] [µM] | IC50 [1] [µM] |
| --- | --- | --- |
| CC[C@H](C)[C@H](NC(=O)[C@@H](Cc1ccccc1)NC(=O)[C@@H](Cc1c[nH]c2ccccc12)NC(=O)[C@@H](N)CCCN=C(N)N)C(=O)N[C@H](Cc1ccccc1)C(=O)N[C@@H](Cc1c[nH]cn1)C(=O)N[C@@H](CCCCN)C(=O)N[C@@H](CCCCN)C(=O)NCC(N)=O [listing 1 of 2 here] |  | 2.77 |
| CC[C@H](C)[C@H](NC(=O)[C@@H](Cc1ccccc1)NC(=O)[C@@H](Cc1c[nH]c2ccccc12)NC(=O)[C@@H](N)CCCN=C(N)N)C(=O)N[C@H](Cc1ccccc1)C(=O)N[C@@H](Cc1c[nH]cn1)C(=O)N[C@@H](CCCCN)C(=O)N[C@@H](CCCCN)C(=O)NCC(N)=O [listing 2 of 2 here] | 2.51 (≈ 3.06 µg/mL) |  |
| CC[C@H](C)[C@H](NC(=O)[C@@H](Cc1ccccc1)NC(=O)[C@@H](Cc1c[nH]c2ccccc12)NC(=O)[C@@H](N)CCCN=C(N)N)C(=O)N[C@H](Cc1ccccc1)C(=O)N[C@@H](Cc1c[nH]cn1)C(=O)N[C@@H](CCCCN)C(=O)N[C@@H](CCCCN)C(=O)N[C@@H](Cc1ccccc1)C(N)=O [listing 1 of 2 here] |  | > 7 |
| CC[C@H](C)[C@H](NC(=O)[C@@H](Cc1ccccc1)NC(=O)[C@@H](Cc1c[nH]c2ccccc12)NC(=O)[C@@H](N)CCCN=C(N)N)C(=O)N[C@H](Cc1ccccc1)C(=O)N[C@@H](Cc1c[nH]cn1)C(=O)N[C@@H](CCCCN)C(=O)N[C@@H](CCCCN)C(=O)N[C@@H](Cc1ccccc1)C(N)=O [listing 2 of 2 here] | > 7 |  |
| CC[C@H](C)[C@H](NC(=O)[C@@H](Cc1ccccc1)NC(=O)[C@@H](Cc1c[nH]c2ccccc12)NC(=O)[C@@H](N)CCCN=C(N)N)C(=O)N[C@H](Cc1ccccc1)C(=O)N[C@@H](Cc1c[nH]cn1)C(=O)N[C@@H](CCCCN)C(=O)N[C@@H](CCCCN)C(=O)N[C@H](C(N)=O)C(C)C | 2.43 (≈ 3.06 µg/mL) | 3.08 |
| CC[C@H](C)[C@H](NC(=O)[C@@H](Cc1ccccc1)NC(=O)[C@@H](Cc1c[nH]c2ccccc12)NC(=O)[C@@H](N)CCCN=C(N)N)C(=O)N[C@H](Cc1ccccc1)C(=O)N[C@@H](Cc1c[nH]cn1)C(=O)N[C@@H](CCCCN)C(=O)N[C@@H](CCCCN)C(=O)N[C@@H](C)C(N)=O [listing 1 of 2 here] |  | 3.17 |
| CC[C@H](C)[C@H](NC(=O)[C@@H](Cc1ccccc1)NC(=O)[C@@H](Cc1c[nH]c2ccccc12)NC(=O)[C@@H](N)CCCN=C(N)N)C(=O)N[C@H](Cc1ccccc1)C(=O)N[C@@H](Cc1c[nH]cn1)C(=O)N[C@@H](CCCCN)C(=O)N[C@@H](CCCCN)C(=O)N[C@@H](C)C(N)=O [listing 2 of 2 here] | 2.48 (≈ 3.05 µg/mL) |  |
| CC[C@H](C)[C@H](NC(=O)[C@@H](Cc1ccccc1)NC(=O)[C@@H](Cc1c[nH]c2ccccc12)NC(=O)[C@@H](N)CCCN=C(N)N)C(=O)N[C@H](Cc1ccccc1)C(=O)N[C@@H](Cc1c[nH]cn1)C(=O)N[C@@H](CCCCN)C(=O)N[C@@H](CCCCN)C(=O)N1CCC[C@H]1C(N)=O | 2.43 (≈ 3.06 µg/mL) | 3.89 |
| CC[C@H](C)[C@H](NC(=O)[C@@H](Cc1ccccc1)NC(=O)[C@@H](Cc1c[nH]c2ccccc12)NC(=O)[C@@H](N)CCCN=C(N)N)C(=O)N[C@H](Cc1ccccc1)C(=O)N[C@@H](Cc1c[nH]cn1)C(=O)N[C@@H](CCCCN)C(=O)N[C@@H](CCCCN)C(=O)N[C@@H](CCC(=O)O)C(N)=O [listing 1 of 2 here] |  | 3.57 |
| CC[C@H](C)[C@H](NC(=O)[C@H](CCCCN)NC(=O)[C@H](CCCCN)NC(=O)[C@H](Cc1c[nH]cn1)NC(=O)[C@@H](Cc1ccccc1)NC(=O)[C@@H](NC(=O)[C@@H](Cc1ccccc1)NC(=O)[C@@H](Cc1c[nH]c2ccccc12)NC(=O)[C@@H](N)CCCN=C(N)N)[C@@H](C)CC)C(N)=O | 2.4 (≈ 3.06 µg/mL) | 1.65 |
| CC[C@H](C)[C@H](NC(=O)[C@@H](Cc1ccccc1)NC(=O)[C@@H](Cc1c[nH]c2ccccc12)NC(=O)[C@@H](N)CCCN=C(N)N)C(=O)N[C@H](Cc1ccccc1)C(=O)N[C@@H](Cc1c[nH]cn1)C(=O)N[C@@H](CCCCN)C(=O)N[C@@H](CCCCN)C(=O)N[C@@H](CC(=O)O)C(N)=O [listing 1 of 2 here] |  | 3.52 |
| CC[C@H](C)[C@H](NC(=O)[C@@H](Cc1ccccc1)NC(=O)[C@@H](Cc1c[nH]c2ccccc12)NC(=O)[C@@H](N)CCCN=C(N)N)C(=O)N[C@H](Cc1ccccc1)C(=O)N[C@@H](Cc1c[nH]cn1)C(=O)N[C@@H](CCCCN)C(=O)N[C@@H](CCCCN)C(=O)N[C@@H](Cc1c[nH]cn1)C(N)=O [listing 1 of 2 here] |  | 1.9 |
| CC[C@H](C)[C@H](NC(=O)[C@@H](Cc1ccccc1)NC(=O)[C@@H](Cc1c[nH]c2ccccc12)NC(=O)[C@@H](N)CCCN=C(N)N)C(=O)N[C@H](Cc1ccccc1)C(=O)N[C@@H](Cc1c[nH]cn1)C(=O)N[C@@H](CCCCN)C(=O)N[C@@H](CCCCN)C(=O)N[C@@H](Cc1c[nH]cn1)C(N)=O [listing 2 of 2 here] | 2.36 (≈ 3.06 µg/mL) |  |
| NCCCC[C@H](NC(=O)[C@@H](Cc1ccccc1)NC(=O)[C@H](Cc1ccccc1)NC(=O)[C@@H](Cc1ccccc1)NC(=O)[C@@H](Cc1c[nH]c2ccccc12)NC(=O)[C@@H](N)Cc1c[nH]cn1)C(N)=O (H-H[dW][dF]F[dF]K-NH2) | 6.81 (≈ 6.2 µg/mL) |  |
| CC[C@H](C)[C@H](NC(=O)[C@@H](Cc1ccccc1)NC(=O)[C@@H](Cc1c[nH]c2ccccc12)NC(=O)[C@@H](N)CCCN=C(N)N)C(=O)N[C@H](Cc1ccccc1)C(=O)N[C@@H](Cc1c[nH]cn1)C(N)=O (H-R[dW][dF]I[dF]H-NH2) | 6.86 (≈ 6.2 µg/mL) |  |

Further lines, with some results ahead:

| MIC [2] [µM] | SMILES | IC50 [1] [µM] |
| --- | --- | --- |
| 2.39 (≈ 3.11 µg/mL) | CC[C@H](C)[C@H](NC(=O)[C@H](CCCN=C(N)N)NC(=O)[C@H](CCCCN)NC(=O)[C@H](Cc1c[nH]cn1)NC(=O)[C@@H](Cc1ccccc1)NC(=O)[C@@H](NC(=O)[C@@H](Cc1ccccc1)NC(=O)[C@@H](Cc1c[nH]c2ccccc12)NC(=O)[C@@H](N)CCCN=C(N)N)[C@@H](C)CC)C(N)=O | 4.64 |
| 4.62 (≈ 6.24 µg/mL) | CC[C@H](C)[C@H](NC(=O)[C@@H](Cc1ccccc1)NC(=O)[C@@H](Cc1c[nH]c2ccccc12)NC(=O)[C@@H](N)CCCN=C(N)N)C(=O)N[C@H](Cc1ccccc1)C(=O)N[C@@H](Cc1c[nH]cn1)C(=O)N[C@@H](CCCCN)C(=O)N[C@@H](CCCN=C(N)N)C(=O)N[C@@H](Cc1ccc(O)cc1)C(N)=O | 7.08 |
| 2.45 (≈ 3.06 µg/mL) | CC[C@H](C)[C@H](NC(=O)[C@@H](Cc1ccccc1)NC(=O)[C@@H](Cc1c[nH]c2ccccc12)NC(=O)[C@@H](N)CCCN=C(N)N)C(=O)N[C@H](Cc1ccccc1)C(=O)N[C@@H](Cc1c[nH]cn1)C(=O)N[C@@H](CCCCN)C(=O)N[C@@H](CCCCN)C(=O)N[C@@H](CO)C(N)=O | 1.77 |
| 2.32 (≈ 3.05 µg/mL) | CC[C@H](C)[C@H](NC(=O)[C@@H](Cc1ccccc1)NC(=O)[C@@H](Cc1c[nH]c2ccccc12)NC(=O)[C@@H](N)CCCN=C(N)N)C(=O)N[C@H](Cc1ccccc1)C(=O)N[C@@H](Cc1c[nH]cn1)C(=O)N[C@@H](CCCCN)C(=O)N[C@@H](CCCCN)C(=O)N[C@@H](CCCN=C(N)N)C(N)=O | 1.64 |
| 2.37 (≈ 3.06 µg/mL) | CC[C@H](C)[C@H](NC(=O)[C@@H](Cc1ccccc1)NC(=O)[C@@H](Cc1c[nH]c2ccccc12)NC(=O)[C@@H](N)CCCN=C(N)N)C(=O)N[C@H](Cc1ccccc1)C(=O)N[C@@H](Cc1c[nH]cn1)C(=O)N[C@@H](CCCCN)C(=O)N[C@@H](CCCCN)C(=O)N[C@@H](CCC(=O)O)C(N)=O [listing 2 of 2 here] |  |
| 4.64 (≈ 6.24 µg/mL) | CC[C@H](C)[C@H](NC(=O)[C@@H](Cc1ccccc1)NC(=O)[C@@H](Cc1c[nH]c2ccccc12)NC(=O)[C@@H](N)CCCN=C(N)N)C(=O)N[C@H](Cc1ccccc1)C(=O)N[C@@H](Cc1c[nH]cn1)C(=O)N[C@@H](CCCCN)C(=O)N[C@@H](CCCN=C(N)N)C(=O)N[C@@H](CCCN=C(N)N)C(N)=O | 4.15 |
| 4.74 (≈ 6.25 µg/mL) | CC[C@H](C)[C@H](NC(=O)[C@@H](Cc1ccccc1)NC(=O)[C@@H](Cc1c[nH]c2ccccc12)NC(=O)[C@@H](N)CCCN=C(N)N)C(=O)N[C@H](Cc1ccccc1)C(=O)N[C@@H](Cc1c[nH]cn1)C(=O)N[C@@H](CCCCN)C(=O)N[C@@H](CCCN=C(N)N)C(=O)N[C@@H](CCC(=O)O)C(N)=O | 4.23 |
| 2.4 (≈ 3.06 µg/mL) | CC[C@H](C)[C@H](NC(=O)[C@@H](Cc1ccccc1)NC(=O)[C@@H](Cc1c[nH]c2ccccc12)NC(=O)[C@@H](N)CCCN=C(N)N)C(=O)N[C@H](Cc1ccccc1)C(=O)N[C@@H](Cc1c[nH]cn1)C(=O)N[C@@H](CCCCN)C(=O)N[C@@H](CCCCN)C(=O)N[C@@H](CC(N)=O)C(N)=O | 3.35 |
| 2.35 (≈ 3.12 µg/mL) | CC[C@H](C)[C@H](NC(=O)[C@@H](Cc1ccccc1)NC(=O)[C@@H](Cc1c[nH]c2ccccc12)NC(=O)[C@@H](N)CCCN=C(N)N)C(=O)N[C@H](Cc1ccccc1)C(=O)N[C@@H](Cc1c[nH]cn1)C(=O)N[C@@H](CCCCN)C(=O)N[C@@H](CCCN=C(N)N)C(=O)N[C@@H](Cc1c[nH]cn1)C(N)=O | 4.11 |
| 2.5 (≈ 3.11 µg/mL) | CC[C@H](C)[C@H](NC(=O)[C@@H](Cc1ccccc1)NC(=O)[C@@H](Cc1c[nH]c2ccccc12)NC(=O)[C@@H](N)CCCN=C(N)N)C(=O)N[C@H](Cc1ccccc1)C(=O)N[C@@H](Cc1c[nH]cn1)C(=O)N[C@@H](CCCCN)C(=O)N[C@@H](CCCN=C(N)N)C(=O)NCC(N)=O | 4.48 |
| 4.79 (≈ 6.24 µg/mL) | CC[C@H](C)[C@H](NC(=O)[C@@H](Cc1ccccc1)NC(=O)[C@@H](Cc1c[nH]c2ccccc12)NC(=O)[C@@H](N)CCCN=C(N)N)C(=O)N[C@H](Cc1ccccc1)C(=O)N[C@@H](Cc1c[nH]cn1)C(=O)N[C@@H](CCCCN)C(=O)N[C@@H](CCCN=C(N)N)C(=O)N[C@@H](CC(=O)O)C(N)=O | 7.71 |
| 4.8 (≈ 6.12 µg/mL) | CC[C@H](C)[C@H](NC(=O)[C@@H](Cc1ccccc1)NC(=O)[C@@H](Cc1c[nH]c2ccccc12)NC(=O)[C@@H](N)CCCN=C(N)N)C(=O)N[C@H](Cc1ccccc1)C(=O)N[C@@H](Cc1c[nH]cn1)C(=O)N[C@@H](CCCCN)C(=O)N[C@@H](CCCCN)C(=O)N[C@@H](CC(=O)O)C(N)=O [listing 2 of 2 here] |  |
| 4.85 (≈ 6.24 µg/mL) | CC[C@H](C)[C@H](NC(=O)[C@@H](Cc1ccccc1)NC(=O)[C@@H](Cc1c[nH]c2ccccc12)NC(=O)[C@@H](N)CCCN=C(N)N)C(=O)N[C@H](Cc1ccccc1)C(=O)N[C@@H](Cc1c[nH]cn1)C(=O)N[C@@H](CCCCN)C(=O)N[C@@H](CCCN=C(N)N)C(=O)N[C@H](C(N)=O)C(C)C | 4.88 |
| 2.36 (≈ 3.11 µg/mL) | CC[C@H](C)[C@H](NC(=O)[C@@H](Cc1ccccc1)NC(=O)[C@@H](Cc1c[nH]c2ccccc12)NC(=O)[C@@H](N)CCCN=C(N)N)C(=O)N[C@H](Cc1ccccc1)C(=O)N[C@@H](Cc1c[nH]cn1)C(=O)N[C@@H](CCCCN)C(=O)N[C@@H](CCCN=C(N)N)C(=O)N[C@@H](CCSC)C(N)=O | 4.62 |
